# Reference: patent US12285407B2, “Bis-indolylmethane derivatives and uses thereof” (The University of The West Indies, priority 2018, dated 2025)
# Where two headings read alike, the source gives them in different places.
# Assays:
# [1] = tested on: MRSA HS 10132; experiment: Systemic non-lethal MRSA infection in mice (organ MRSA load); assay type: in vivo
# [2] = tested on: Enterococcus faecalis; experiment: Adjuvant broth microdilution (antibiotic MIC with SP-BIM at 50 μg/mL); assay type: cell-based; conditions: antibiotic alone
# [3] = tested on: clinical antibiotic resistant isolates of Enterococcus faecium; experiment: Checkerboard resistance breaking by SP-BIM 13; assay type: cell-based; conditions: for FIC compound / Rescue concentration of SP-BIM 13: SP-BIM 13 with the labelled antibiotic; for Interpretation / Σ FIC: antibiotic + SP-BIM 13; for MIC of antibiotic only: antibiotic alone; for FIC antibiotic: combination with SP-BIM 13; for MIC of antibiotic in combination: with SP-BIM 13 at rescue concentration
# [4] = tested on: Pseudomonas aeruginosa; experiment: Adjuvant broth microdilution (antibiotic MIC with SP-BIM at 50 μg/mL); assay type: cell-based; conditions: antibiotic alone
# [5] = tested on: Enterobacter cloacae; experiment: as above; assay type: cell-based; conditions: antibiotic alone
# [6] = tested on: clinical antibiotic resistant isolates of MRSA; experiment: Checkerboard resistance breaking by SP-BIM 13; assay type: cell-based, Staphylococcus aureus; conditions: for FIC compound: SP-BIM 13 with the labelled antibiotic; for Interpretation / Σ FIC: antibiotic + SP-BIM 13; for MIC of antibiotic only: antibiotic alone; for FIC antibiotic: combination with SP-BIM 13; for MIC of antibiotic in combination: with SP-BIM 13 at rescue concentration
# [7] = tested on: Escherichia coli O157:H7; experiment: Rescue concentrations of SP-BIM that reactivate antibiotic; assay type: cell-based; conditions: for MIC: Escherichia coli
compound,measurement,setting,value
"CC1(C)S[C@@H]2[C@H](NC(=O)[C@H](N)c3ccccc3)C(=O)N2[C@H]1C(=O)O [Ampicillin, ampicillin]",MRSA load in the spleen,"[1]; ampicillin only ([…] mg kg^−1), SP-BIM 9 study","14,622 CFU g^−1"
same,MRSA counts in liver,"[1]; ampicillin only ([…] mg kg^−1), subcutaneous",3500 CFU mL^−1
same,MRSA counts in the liver,"[1]; ampicillin only, SP-BIM 9 study",7605 CFU g^−1
same,"MIC of antibiotic, No Compound",[2],2 µg/mL
same,FIC compound,[3]; E. faecium strain 22870,0.128
same,Interpretation,[3]; E. faecium strain 22870,Synergy (Synergy: FICI≤0.5)
same,Σ FIC,[3]; E. faecium strain 22870,<0.14
same,MIC of antibiotic only,[3]; E. faecium strain 22870,250 µg/mL
same,FIC antibiotic,[3]; E. faecium strain 22870,0.008
same,MIC of antibiotic in combination,[3]; E. faecium strain 22870,2 µg/mL
same,FIC compound,[3]; E. faecium strain RC63,0252
same,Interpretation,[3]; E. faecium strain RC63,Synergy (Synergy: FICI≤0.5)
same,Σ FIC,[3]; E. faecium strain RC63,<0.26
same,MIC of antibiotic only,[3]; E. faecium strain RC63,250 µg/mL
same,FIC antibiotic,[3]; E. faecium strain RC63,0.008
same,MIC of antibiotic in combination,[3]; E. faecium strain RC63,2 µg/mL
same,"MIC of antibiotic, No Compound",[4],>250 µg/mL
same,"MIC of antibiotic, No Compound",[5],>250 µg/mL
same,FIC compound,[6]; MRSA strain 1594,0.128
same,Interpretation,[6]; MRSA strain 1594,Synergy (Synergy: FICI≤0.5)
same,Σ FIC,[6]; MRSA strain 1594,<0.14
same,MIC of antibiotic only,[6]; MRSA strain 1594,250 µg/mL
same,FIC antibiotic,[6]; MRSA strain 1594,0.016
same,MIC of antibiotic in combination,[6]; MRSA strain 1594,4 µg/mL
same,FIC compound,[6]; MRSA strain 1621,0.128
same,Interpretation,[6]; MRSA strain 1621,Synergy (Synergy: FICI≤0.5)
same,Σ FIC,[6]; MRSA strain 1621,<0.13
same,MIC of antibiotic only,[6]; MRSA strain 1621,250 µg/mL
same,FIC antibiotic,[6]; MRSA strain 1621,0.002
same,MIC of antibiotic in combination,[6]; MRSA strain 1621,0.5 µg/mL
same,FIC compound,[6]; MRSA strain 5455,0.252
same,Interpretation,[6]; MRSA strain 5455,Synergy (Synergy: FICI≤0.5)
same,Σ FIC,[6]; MRSA strain 5455,<0.26
same,MIC of antibiotic only,[6]; MRSA strain 5455,250 µg/mL
same,FIC antibiotic,[6]; MRSA strain 5455,0.004
same,MIC of antibiotic in combination,[6]; MRSA strain 5455,1 µg/mL
same,FIC compound,[6]; MRSA strain 5872,0.128
same,Interpretation,[6]; MRSA strain 5872,Synergy (Synergy: FICI≤0.5)
same,Σ FIC,[6]; MRSA strain 5872,<0.13
same,MIC of antibiotic only,[6]; MRSA strain 5872,250 µg/mL
same,FIC antibiotic,[6]; MRSA strain 5872,0.002
same,MIC of antibiotic in combination,[6]; MRSA strain 5872,0.5 µg/mL
same,FIC compound,[6]; MRSA strain 7153,0.252
same,Interpretation,[6]; MRSA strain 7153,Synergy (Synergy: FICI≤0.5)
same,Σ FIC,[6]; MRSA strain 7153,<0.25
same,MIC of antibiotic only,[6]; MRSA strain 7153,250 µg/mL
same,FIC antibiotic,[6]; MRSA strain 7153,0.002
same,MIC of antibiotic in combination,[6]; MRSA strain 7153,0.5 µg/mL
same,FIC compound,[6]; MRSA strain 7172,0.128
same,Interpretation,[6]; MRSA strain 7172,Synergy (Synergy: FICI≤0.5)
same,Σ FIC,[6]; MRSA strain 7172,<0.14
same,MIC of antibiotic only,[6]; MRSA strain 7172,250 µg/mL
same,FIC antibiotic,[6]; MRSA strain 7172,0.008
same,MIC of antibiotic in combination,[6]; MRSA strain 7172,2 µg/mL
same,FIC compound,[6]; MRSA strain 7698,0.128
same,Interpretation,[6]; MRSA strain 7698,Synergy (Synergy: FICI≤0.5)
same,Σ FIC,[6]; MRSA strain 7698,<0.14
same,MIC of antibiotic only,[6]; MRSA strain 7698,250 µg/mL
same,FIC antibiotic,[6]; MRSA strain 7698,0.008
same,MIC of antibiotic in combination,[6]; MRSA strain 7698,2 µg/mL
same,FIC compound,[6]; MRSA strain 10132,0.064
same,Interpretation,[6]; MRSA strain 10132,Synergy (Synergy: FICI≤0.5)
same,Σ FIC,[6]; MRSA strain 10132,<0.07
same,MIC of antibiotic only,[6]; MRSA strain 10132,250 µg/mL
same,FIC antibiotic,[6]; MRSA strain 10132,0.002
same,MIC of antibiotic in combination,[6]; MRSA strain 10132,0.5 µg/mL
same,MIC of antibiotic without SP-BIM 13,[6]; clinical MRSA strains,≥ 250 µg/mL
same,MIC of Ampicillin in combination with […] SP-BIM 27,"[7]; E. coli O157:H7, with […] SP-BIM 27",2 µg/mL
same,MIC,[7]; read-out: MIC of Ampicillin,16 µg/mL
"CN[C@H](CC(C)C)C(=O)N[C@H]1C(=O)N[C@@H](CC(N)=O)C(=O)N[C@H]2C(=O)N[C@H]3C(=O)N[C@H](C(=O)N[C@H](C(=O)O)c4cc(O)cc(O)c4-c4cc3ccc4O)[C@H](O)c3ccc(c(Cl)c3)Oc3cc2cc(c3O[C@@H]2O[C@H](CO)[C@@H](O)[C@H](O)[C@H]2O[C@H]2C[C@](C)(N)[C@H](O)[C@H](C)O2)Oc2ccc(cc2Cl)[C@H]1O [Vancomycin, vancomycin]","MIC of antibiotic, No Compound",[2],250 µg/mL
same,FIC compound,[3]; E. faecium strain 21024,0.128
same,Rescue concentration of SP-BIM 13,[3]; E. faecium strain 21024,32 µg/mL
same,Interpretation,[3]; E. faecium strain 21024,Synergy (Synergy: FICI≤0.5)
same,Σ FIC,[3]; E. faecium strain 21024,<0.14
same,MIC of antibiotic only,[3]; E. faecium strain 21024,63 µg/mL
same,FIC antibiotic,[3]; E. faecium strain 21024,0.016
same,MIC of antibiotic in combination,[3]; E. faecium strain 21024,1 µg/mL
same,FIC compound,[3]; E. faecium strain 22870,0.004
same,Rescue concentration of SP-BIM 13,[3]; E. faecium strain 22870,1 µg/mL
same,Interpretation,[3]; E. faecium strain 22870,Synergy (Synergy: FICI≤0.5)
same,Σ FIC,[3]; E. faecium strain 22870,<0.07
same,MIC of antibiotic only,[3]; E. faecium strain 22870,32 µg/mL
same,FIC antibiotic,[3]; E. faecium strain 22870,0.063
same,MIC of antibiotic in combination,[3]; E. faecium strain 22870,2 µg/mL
same,FIC compound,[3]; E. faecium strain 23227,0.032
same,Rescue concentration of SP-BIM 13,[3]; E. faecium strain 23227,8 µg/mL
same,Interpretation,[3]; E. faecium strain 23227,Synergy (Synergy: FICI≤0.5)
same,Σ FIC,[3]; E. faecium strain 23227,<0.06
same,MIC of antibiotic only,[3]; E. faecium strain 23227,32 µg/mL
same,FIC antibiotic,[3]; E. faecium strain 23227,0.031
same,MIC of antibiotic in combination,[3]; E. faecium strain 23227,1 µg/mL
same,FIC compound,[3]; E. faecium strain 23230,0.064
same,Rescue concentration of SP-BIM 13,[3]; E. faecium strain 23230,16 µg/mL
same,Interpretation,[3]; E. faecium strain 23230,Synergy (Synergy: FICI≤0.5)
same,Σ FIC,[3]; E. faecium strain 23230,<0.13
same,MIC of antibiotic only,[3]; E. faecium strain 23230,32 µg/mL
same,FIC antibiotic,[3]; E. faecium strain 23230,0.063
same,MIC of antibiotic in combination,[3]; E. faecium strain 23230,2 µg/mL
same,FIC compound,[3]; E. faecium strain 23668,0.064
same,Rescue concentration of SP-BIM 13,[3]; E. faecium strain 23668,16 µg/mL
same,Interpretation,[3]; E. faecium strain 23668,Synergy (Synergy: FICI≤0.5)
same,Σ FIC,[3]; E. faecium strain 23668,<0.10
same,MIC of antibiotic only,[3]; E. faecium strain 23668,32 µg/mL
same,FIC antibiotic,[3]; E. faecium strain 23668,0.031
same,MIC of antibiotic in combination,[3]; E. faecium strain 23668,1 µg/mL
same,FIC compound,[3]; E. faecium strain 24169,0.128
same,Rescue concentration of SP-BIM 13,[3]; E. faecium strain 24169,32 µg/mL
same,Interpretation,[3]; E. faecium strain 24169,Synergy (Synergy: FICI≤0.5)
same,Σ FIC,[3]; E. faecium strain 24169,<0.14
same,MIC of antibiotic only,[3]; E. faecium strain 24169,63 µg/mL
same,FIC antibiotic,[3]; E. faecium strain 24169,0.008
same,MIC of antibiotic in combination,[3]; E. faecium strain 24169,0.5 µg/mL
same,Rescue concentration of SP-BIM 13,[3]; E. faecium strain RC63,63 µg/mL
same,Interpretation,[3]; E. faecium strain RC63,Synergy (Synergy: FICI≤0.5)
same,Σ FIC,[3]; E. faecium strain RC63,<0.26
same,MIC of antibiotic only,[3]; E. faecium strain RC63,32 µg/mL
same,FIC antibiotic,[3]; E. faecium strain RC63,0.006
same,MIC of antibiotic in combination,[3]; E. faecium strain RC63,0.2 µg/mL
same,MIC,"[3]; Enterococcus faecium, read-out: MIC of Vancomycin without SP-BIM 13",32 to 63 µg/mL
same,"MIC of antibiotic, No Compound",[4],>250 µg/mL
same,"MIC of antibiotic, No Compound",[5],>250 µg/mL
same,MIC,[7]; read-out: MIC (single agent),250 µg/mL
